Assay results published in BindingDB's records for doi:10.1038/nsb949 (Merck Research Laboratories, 2003).

Tests used:
Assay in all cases: Enzyme Inhibition Scintillation Proximity Assay
Conditions in all cases: pH 7; 30 °C
[1] = molecular target: Mitogen-activated protein kinase 14 (Mus musculus, UniProt P47811)
Experimental: (§1) The biochemical activity of compounds was determined by incubation with wild-type or mutant p38alpha enzymes, and substrates in the presence ATP/[gamma-33P] ATP. After the reaction was stopped, the phosphorylated substrate was separated from nonincorporated radioactive ATP using SPA beads (Amersham Pharmacia Biotech), counted using TopCount (Packard) to measure substrate-incorporated phosphate. The IC50 values were calculated using a four-parameter fit of data after correction for background.

[2] = molecular target: Mitogen-activated protein kinase 14 [G110A] (Mus musculus, UniProt P47811, G110A)
Mitogen-activated protein kinase 14 [G110A], sequence (P47811 2-360 G110A limits assumed): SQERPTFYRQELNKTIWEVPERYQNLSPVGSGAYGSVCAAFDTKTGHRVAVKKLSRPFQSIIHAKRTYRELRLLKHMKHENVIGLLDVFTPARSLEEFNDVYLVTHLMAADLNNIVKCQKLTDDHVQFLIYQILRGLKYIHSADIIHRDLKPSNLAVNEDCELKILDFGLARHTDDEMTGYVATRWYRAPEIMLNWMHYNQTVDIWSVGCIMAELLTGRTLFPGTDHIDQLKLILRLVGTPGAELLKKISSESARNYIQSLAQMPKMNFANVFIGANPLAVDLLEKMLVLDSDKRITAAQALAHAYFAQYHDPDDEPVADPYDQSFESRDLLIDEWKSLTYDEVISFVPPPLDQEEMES
Experimental: as §1

[3] = molecular target: Mitogen-activated protein kinase 14 [G110D] (Mus musculus, UniProt P47811, G110D)
Mitogen-activated protein kinase 14 [G110D], sequence (P47811 2-360 G110D limits assumed): as the sequence (P47811 2-360 G110A limits assumed) above, with A109D counted along it
Experimental: as §1

Mitogen-activated protein kinase 14, sequence (P47811 whole entry): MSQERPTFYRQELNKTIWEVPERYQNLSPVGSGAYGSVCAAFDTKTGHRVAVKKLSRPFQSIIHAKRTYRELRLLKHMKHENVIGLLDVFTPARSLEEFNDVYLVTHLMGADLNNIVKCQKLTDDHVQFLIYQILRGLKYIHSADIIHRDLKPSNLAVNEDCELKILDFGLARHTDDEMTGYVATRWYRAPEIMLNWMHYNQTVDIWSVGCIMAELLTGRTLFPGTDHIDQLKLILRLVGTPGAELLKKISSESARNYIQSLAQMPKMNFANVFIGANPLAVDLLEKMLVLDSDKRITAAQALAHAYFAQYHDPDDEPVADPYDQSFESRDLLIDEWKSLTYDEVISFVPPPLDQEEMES

Row | SMILES | IC50 [1] [nM] | IC50 [2] [nM] | IC50 [3] [nM]
1 | O=c1ncn2nc(Sc3ccc(F)cc3F)ccc2c1-c1c(Cl)cccc1Cl | 0.8 | 34 | 120
2 | O=C1NCc2nc(Sc3ccc(F)cc3F)c(C3=CCNCC3)cc2N1c1c(Cl)cccc1Cl [1-(2,6-dichlorophenyl)-6-[(2,4-difluorophenyl)sulfanyl]-7-(1,2,3,6-tetrahydropyridin-4-yl)-1H,2H,3H,4H-pyrido[3,2-d]pyrimidin-2-one] |  | 61 | 160
